Laboratory results as given in US6037333A, “Microbe-inhibiting compositions” (Trustees of Tufts College, priority 1998, dated 2000).
Entries after “also recorded” stand apart in the source; their conditions may differ.

Key:
[1] = biological target: mannose binding protein (MBP) of Acanthamoeba (Acanthamoeba castellanii, UniProt Q6J288); experiment: Solid-phase assay of 35S-labeled Acanthamoeba binding to Man-BSA coated wells; set-up: species or system Acanthamoeba strain MEEI 0184 (A. castellani); conditions: for Inhibition of amoebic binding to Man-BSA / affinity of amoebic lectin: no concentration stated
mannose binding protein (MBP) of Acanthamoeba, sequence (Q6J288 entry or part of it): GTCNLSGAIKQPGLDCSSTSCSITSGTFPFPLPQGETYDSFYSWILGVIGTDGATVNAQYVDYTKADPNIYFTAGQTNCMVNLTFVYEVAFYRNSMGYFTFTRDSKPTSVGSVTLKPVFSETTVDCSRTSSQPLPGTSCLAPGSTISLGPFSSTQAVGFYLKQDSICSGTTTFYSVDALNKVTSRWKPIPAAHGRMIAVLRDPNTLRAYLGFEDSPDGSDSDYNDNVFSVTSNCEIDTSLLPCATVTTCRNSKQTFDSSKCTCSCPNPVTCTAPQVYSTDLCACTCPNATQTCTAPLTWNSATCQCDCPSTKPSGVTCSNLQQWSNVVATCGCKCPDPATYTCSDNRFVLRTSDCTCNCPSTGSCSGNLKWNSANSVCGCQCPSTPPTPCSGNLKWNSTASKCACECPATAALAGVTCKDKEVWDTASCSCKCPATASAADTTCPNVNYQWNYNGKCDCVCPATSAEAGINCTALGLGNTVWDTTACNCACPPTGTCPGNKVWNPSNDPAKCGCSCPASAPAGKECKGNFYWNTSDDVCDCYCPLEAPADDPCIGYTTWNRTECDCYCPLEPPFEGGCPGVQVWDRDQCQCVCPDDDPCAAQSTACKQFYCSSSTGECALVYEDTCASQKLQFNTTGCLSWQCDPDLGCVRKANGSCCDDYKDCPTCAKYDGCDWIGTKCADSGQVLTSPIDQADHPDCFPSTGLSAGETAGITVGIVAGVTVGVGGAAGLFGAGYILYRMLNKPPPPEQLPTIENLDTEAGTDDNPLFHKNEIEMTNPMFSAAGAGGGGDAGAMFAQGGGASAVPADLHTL
Excerpt: The Acanthamoeba strain MEEI 0184 (A. castellani based on morphological characteristics) was derived from an infected human cornea and used throughout this study. ATCC strain 30868 should have similar properties. The parasites were axenically cultured in PYG medium. A solid-phase assay characterized the sugar binding properties of the mannose binding protein (MBP) of Acanthamoeba (Z. Yang et al., Infect. Immun. 65:439-445, 1997). Briefly, wells of microtiter plates were coated with bovine serum albumin-α-D-mannopyranosyl phenylisothiocyanate (Man-BSA, 15-25 moles of α-D-mannopyranoside/mole albumin, 0.03 μg/ml, 50μl/well in 0.1 M sodium carbonate buffer, pH 9.6, 4° C. overnight). Nonspecific binding was blocked with 1% BSA in phosphate buffered saline (PBS, 1 hour, room temperature). After adding a 50-μl aliquot of ^35 S-labeled Acanthamoeba (5×10^6 cells/ml in PBS; 1 to 2 cpm/parasite, >95% trophozoites) to each well, the plates were incubated for 2 hours at room temperature. After rinsing the cells with PBS to remove unbound Acanthamoeba, 0.1 ml of 2% sodium dodecyl sulfate (SDS) was added to each well, and the radioactivity in aliquots of solubilized material was determined in a scintillation counter.

[2] = tested on: Acanthamoeba-conditioned medium (ACM); experiment: CPE assay with Acanthamoeba-conditioned medium (ACM); format: cell-based
Procedure: To determine whether the mechanism modulating the CPE produced by intact amoeba and amoeba-conditioned medium (ACM) are distinct, CPE and assays were also performed using ACM in the presence and the absence of saccharides. To produce ACM, exponentially growing parasites (>95% trophozoites) in PYG media (Proteose Peptone-yeast extract-glucose , J. T. Bornes et al., J. Parasitol. 56:904-906, 1970) were rinsed twice with SFB medium and incubated in serum-free SFB medium at concentrations between 2×10^5 to 1×10^6 cells/ml in a CO2 incubator for 24 hours. After removing the parasites by centrifugation, each supernatant was analyzed for its ability to induce CPE. Saccharides (α-Man and GIcNAc, 50 mM) were added either to the ACM after it was produced or to serum-free medium used to produce an ACM. The ACM produced in the presence of the saccharides was also analyzed after removal of the saccharides by centrifugation through Centricon 3 microconcentrators (Amicon Inc., Beverly, Mass.).
To determine the role of the parasitic secretory factors in the cytopathogenic mechanism, chromium release and CPE assays were performed using ACM. In this study, parasites were incubated in the SFB media for 24 hours, centrifuged to remove parasites and the conditioned medium was tested for its ability to produce cytolysis and CPE. The ACM produced remarkable CPE. […] Approximately 6 to 8 hours following the incubation of the monolayer with the ACM, the cell sheet at the edges of the monolayer began to lift and roll inwards and eventually the entire monolayer lifted en bloc from the dish. These observations were similar to those seen when the monolayers were incubated with trophozoites in the presence of α-Man. Unlike the CPE induced by intact amoeba, the CPE induced by the ACM was not inhibited by either α-Man or GlcNAc when the sugars were added to the ACM after it was produced. In the next set of experiments, ACM was produced in the presence of α-Man or GIcNAc and was tested for CPE-inducing activity. […] In addition, the filtrate and retentate obtained after filtering the ACM in Centricon 3 microconcentrators were tested for CPE-inducing activity. When the ACM was produced in the absence of either sugar, substantially all of the CPE-inducing activity was found in the retentate obtained after Centricon filtration.

Acanthamoeba = experiment: Adhesion of amoebae to corneal epithelial cell monolayer; format: cell-based; conditions: saccharide present in media

CO[C@H]1O[C@H](CO)[C@@H](O)[C@H](O)[C@@H]1O [Methyl-α-D-mannopyranoside]
Relative inhibitory potency in binding to Man-BSA ([1]; comparator named in the value, listed as α-Man): ten times that of D-mannose; also recorded: eight times that of β-Man
Inhibition of amoebic binding to Man-BSA / affinity of amoebic lectin ([1]; listed as Methyl-α-mannopyranoside): potent inhibitors
Inhibition of amoebic binding to Man-BSA / affinity of amoebic lectin ([1]; listed as α-Man): highest affinity
CPE-inducing activity of ACM produced in SFB containing the saccharide ([2]; saccharide 50 mM in medium used to produce ACM): strongly induced CPE
Inhibition of ACM-induced CPE ([2]; sugar (50 mM) added to the ACM after it was produced): not inhibited
Adhesion of amoebae to the cell monolayer in presence of saccharide (Acanthamoeba): did not adhere
